Data taken from patent US12492173B2, “Herbicidal substituted N-tetrazolyl aryl carboxamides” (Bayer Aktiengesellschaft, priority 2019, dated 2025).

Experiments:
Type in all cases: in vivo
[1] = system: Stellaria media; assay: Pre-emergence herbicidal action, STEME; design: key to Herbicidal action against STEME: % activity: 100 = plants have died, 0 = like control plants; settings: comparative experiment, 20 g of a.i./ha
In short: (§1)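 Greenhouse pre-emergence test: formulated compound (WP or EC) applied in water to the soil covering sown seeds, 600–800 l/ha, 0.2% wetting agent. Scored visually in percent at 3 weeks versus untreated plants.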

[2] = system: Veronica persica; assay: Pre-emergence herbicidal action, VERPE; design: key to Herbicidal action against VERPE: % activity: 100 = plants have died, 0 = like control plants; settings: comparative experiment, 20 g of a.i./ha
In short: as §1

[3] = system: Avena fatua; assay: Pre-emergence herbicidal action, AVEFA; settings: comparative experiment, 20 g of a.i./ha
Source text: (§2) 1. Pre-Emergence Herbicidal Action Against Harmful Plants Seeds of monocotyledonous and dicotyledonous weed plants and crop plants are laid out in sandy loam soil in wood-fiber pots and covered with soil. The compounds of the invention, formulated in the form of wettable powders (WP) or as emulsion concentrates (EC), are then applied to the surface of the covering soil in the form of an aqueous suspension or emulsion at a water application rate equating to 600 to 800 l/ha, with addition of 0.2% wetting agent. After the treatment, the pots are placed in a greenhouse and kept under good growth conditions for the trial plants. The damage to the test plants is scored visually after a test period of 3 weeks by comparison with untreated controls (herbicidal activity in percent (%): 100% activity=the plants have died, 0% activity=like control plants). […] The tables below illustrate, in an exemplary manner, the post-emergence herbicidal action of the compounds according to the invention, the herbicidal activity being stated in percent. [table] In the experiments that follow, herbicidal action of numerous inventive compounds and the known compounds that are structurally closest from D1 (WO 2012/028579 A1) and D2 (WO 2018/202535 A1) were compared under the above-specified conditions by the pre-emergence and post-emergence method. […]

[4] = system: Matricaria inodora; assay: Pre-emergence herbicidal action, MATIN; design: key to Herbicidal action against MATIN: % activity: 100 = plants have died, 0 = like control plants; settings: comparative experiment, 20 g of a.i./ha
In short: as §1

[5] = system: Pharbitis purpurea; assay: Pre-emergence herbicidal action, PHBPU; settings: comparative experiment, 20 g of a.i./ha
In short: as §1

[6] = system: Viola tricolor; assay: Pre-emergence herbicidal action, VIOTR; design: key to Herbicidal action against VIOTR: % activity: 100 = plants have died, 0 = like control plants; settings: comparative experiment, 20 g of a.i./ha
In short: as §1

[7] = system: Veronica persica; assay: Post-emergence herbicidal action, VERPE; design: key: % herbicidal action vs untreated; 100 = plants died, 0 = like control; settings: comparative experiment, post-emergence, 5 g of a.i./ha
In short: (§3)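 Percent herbicidal effect was rated visually about 3 weeks after treatment, relative to untreated plants (0% = like control, 100% = dead). Compounds, formulated as WP or EC, went on as aqueous spray (600–800 l/ha, 0.2% wetting agent) to one-leaf-stage plants 2–3 weeks post-sowing in sandy loam.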

[8] = system: Polygonum convolvulus; assay: Post-emergence herbicidal action, POLCO; settings: comparative experiment, post-emergence, 5 g of a.i./ha
In short: as §3

[9] = system: Abutilon theophrasti; assay: Pre-emergence herbicidal action, ABUTH; design: key to Herbicidal action against ABUTH: % activity: 100 = plants have died, 0 = like control plants; settings: comparative experiment, 20 g of a.i./ha
In short: as §1

[10] = system: Matricaria inodora; assay: Post-emergence herbicidal action, MATIN; design: key: % herbicidal action vs untreated; 100 = plants died, 0 = like control; settings: comparative experiment, post-emergence, 5 g of a.i./ha
In short: as §3

[11] = system: Stellaria media; assay: Post-emergence herbicidal action, STEME; design: key: % herbicidal action vs untreated; 100 = plants died, 0 = like control; settings: comparative experiment, post-emergence, 5 g of a.i./ha
In short: as §3

[12] = system: Alopecurus myosuroides; assay: Pre-emergence herbicidal action, ALOMY; design: key: % activity: 100 = plants have died, 0 = like control plants; settings: comparative experiment, 20 g of a.i./ha
Source text: as §2, with “method. The example numbers given in the tables relate to the compounds disclosed in the respective documents. In addition to the compounds disclosed in D1 and D2, the following compounds V-1 to V-14 that are encompassed by D1 or D2 but are not compounds specified therein were used in the comparative experiments: • V-1: 2-(methylsulfanyl)-3-(methylsulfinyl)-N-(1-methyl-1H-tetrazol-5-yl)-4-(trifluoromethyl)benzamide • V-2: 2-(methylsulfanyl)-3-(methylsulfonyl)-N-(1-methyl-1H-tetrazol-5-yl)-4-(trifluoromethyl)benzamide • V-3: 2,3-bis(ethylsulfanyl)-N-(1-methyl-1H-tetrazol-5-yl)-4-(trifluoromethyl)benzamide • V-4: 2-chloro-3-(ethylsulfanyl)-N-(1-methyl-1H-tetrazol-5-yl)-4-(trifluoromethyl)benzamide • V-5: 2-chloro-4-iodo-3-(methylsulfanyl)-N-(1-methyl-1H-tetrazol-5-yl)benzamide • V-6: 2-chloro-4-iodo-3-(methylsulfinyl)-N-(1-methyl-1H-tetrazol-5-yl)benzamide • V-7: 2-chloro-4-iodo-3-(methylsulfonyl)-N-(1-methyl-1H-tetrazol-5-yl)benzamide • V-8: 2-bromo-3-(methylsulfanyl)-N-(1-methyl-1H-tetrazol-5-yl)-4-(trifluoromethyl)benzamide • V-9: 2-bromo-3-(methylsulfinyl)-N-(1-methyl-1H-tetrazol-5-yl)-4-(trifluoromethyl)benzamide • V-10: 2-bromo-3-(methylsulfonyl)-N-(1-methyl-1H-tetrazol-5-yl)-4-(trifluoromethyl)benzamide • V-11: 2-bromo-3-(ethylsulfanyl)-N-(1-methyl-1H-tetrazol-5-yl)-4-(trifluoromethyl)benzamide • V-12: 2-bromo-3-(ethylsulfinyl)-N-(1-methyl-1H-tetrazol-5-yl)-4-(trifluoromethyl)benzamide • V-13: 2-bromo-3-(ethylsulfonyl)-N-(1-methyl-1-1H-tetrazol-5-yl)-4-(trifluoromethyl)benzamide • V-14: 2-cyclopropyl-3-(ethylsulfanyl)-N-(1-methyl-1H-tetrazol-5-yl)-4-(trifluoromethyl)benzamide Herbicidal Pre-Emergence Action:” for “method.”

[13] = system: Alopecurus myosuroides; assay: Post-emergence herbicidal action, ALOMY; design: key: % herbicidal action vs untreated; 100 = plants died, 0 = like control; settings: comparative experiment, post-emergence, 5 g of a.i./ha
In short: as §3

[14] = system: Lolium multiflorum; assay: Post-emergence herbicidal action, LOLMU; design: key: % herbicidal action: 100 = plants died, 0 = like control; settings: comparative experiment, post-emergence, 5 g of a.i./ha
Protocol: [table] 2. Post-Emergence Herbicidal Action Against Harmful Plants Seeds of monocotyledonous and dicotyledonous weed and crop plants are laid out in sandy loam soil in wood-fiber pots, covered with soil and cultivated in a greenhouse under good growth conditions. 2 to 3 weeks after sowing, the test plants are treated at the one-leaf stage. The compounds of the invention, formulated in the form of wettable powders (WP) or as emulsion concentrates (EC), are then sprayed onto the green parts of the plants in the form of an aqueous suspension or emulsion at a water application rate equating to 600 to 800 l/ha, with addition of 0.2% wetting agent. After the test plants have been left to stand in the greenhouse under optimal growth conditions for about 3 weeks, the action of the preparations is assessed visually in comparison to untreated controls (herbicidal action in percent (%): 100% activity=the plants have died, 0% activity=like control plants). […] The tables below illustrate, in an exemplary manner, the post-emergence herbicidal action of the compounds according to the invention, the herbicidal activity being stated in percent. In the experiments that follow, herbicidal action of numerous inventive compounds and the known compounds that are structurally closest from D1 (WO 2012/028579 A1) and D2 (WO 2018/202535 A1) were compared under the above-specified conditions by the pre-emergence and post-emergence method. The example numbers given in the tables relate to the compounds disclosed in the respective documents. In addition to the compounds disclosed in D1 and D2, the following compounds V-1 to V-14 that are encompassed by D1 or D2 but are not compounds specified therein were used in the comparative experiments: • V-1: 2-(methylsulfanyl)-3-(methylsulfinyl)-N-(1-methyl-1H-tetrazol-5-yl)-4-(trifluoromethyl)benzamide • V-2: 2-(methylsulfanyl)-3-(methylsulfonyl)-N-(1-methyl-1H-tetrazol-5-yl)-4-(trifluoromethyl)benzamide • V-3: 2,3-bis(ethylsulfanyl)-N-(1-methyl-1H-tetrazol-5-yl)-4-(trifluoromethyl)benzamide • V-4: 2-chloro-3-(ethylsulfanyl)-N-(1-methyl-1H-tetrazol-5-yl)-4-(trifluoromethyl)benzamide • V-5: 2-chloro-4-iodo-3-(methylsulfanyl)-N-(1-methyl-1H-tetrazol-5-yl)benzamide • V-6: 2-chloro-4-iodo-3-(methylsulfinyl)-N-(1-methyl-1H-tetrazol-5-yl)benzamide • V-7: 2-chloro-4-iodo-3-(methylsulfonyl)-N-(1-methyl-1H-tetrazol-5-yl)benzamide • V-8: 2-bromo-3-(methylsulfanyl)-N-(1-methyl-1H-tetrazol-5-yl)-4-(trifluoromethyl)benzamide • V-9: 2-bromo-3-(methylsulfinyl)-N-(1-methyl-1H-tetrazol-5-yl)-4-(trifluoromethyl)benzamide • V-10: 2-bromo-3-(methylsulfonyl)-N-(1-methyl-1H-tetrazol-5-yl)-4-(trifluoromethyl)benzamide • V-11: 2-bromo-3-(ethylsulfanyl)-N-(1-methyl-1H-tetrazol-5-yl)-4-(trifluoromethyl)benzamide • V-12: 2-bromo-3-(ethylsulfinyl)-N-(1-methyl-1H-tetrazol-5-yl)-4-(trifluoromethyl)benzamide • V-13: 2-bromo-3-(ethylsulfonyl)-N-(1-methyl-1-1H-tetrazol-5-yl)-4-(trifluoromethyl)benzamide • V-14: 2-cyclopropyl-3-(ethylsulfanyl)-N-(1-methyl-1H-tetrazol-5-yl)-4-(trifluoromethyl)benzamide Herbicidal Pre-Emergence Action: […]

[15] = system: Cyperus esculentus; assay: Pre-emergence herbicidal action, CYPES; design: key: % activity: 100 = plants have died, 0 = like control plants; settings: comparative experiment, 20 g of a.i./ha
In short: as §1

[16] = system: Avena fatua; assay: Post-emergence herbicidal action, AVEFA; design: key: % herbicidal action vs untreated; 100 = plants died, 0 = like control; settings: comparative experiment, post-emergence, 5 g of a.i./ha
In short: as §3

[17] = system: Setaria viridis; assay: Pre-emergence herbicidal action, SETVI; design: key to Herbicidal action against SETVI: % activity: 100 = plants have died, 0 = like control plants; settings: comparative experiment, 20 g of a.i./ha
In short: as §1

Structure (SMILES) | Herbicidal action against STEME [1] | Herbicidal action against VERPE [2] | Herbicidal action against AVEFA [3] | Herbicidal action against MATIN [4] | Herbicidal action against PHBPU [5] | Herbicidal action against VIOTR [6] | Herbicidal action against VERPE [7] | Herbicidal action against POLCO [8] | Herbicidal action against ABUTH [9] | Herbicidal action against MATIN [10] | Herbicidal action against STEME [11] | Herbicidal action against ALOMY [12] | Herbicidal action against ALOMY [13] | Herbicidal action against LOLMU [14] | Herbicidal action against CYPES [15] | Herbicidal action against AVEFA [16] | Herbicidal action against SETVI [17]
CSCc1c(Cl)ccc(C(=O)Nc2nnnn2C)c1C [Example 1-46] | 90 | 50 | 20 | 80 | 40 | 70 | – | – | – | – | – | – | – | – | – | – | –
CCSc1c(C(F)(F)F)ccc(C(=O)Nc2nnnn2C)c1Cl [Example V-4, 2-chloro-3-(ethylsulfanyl)-N-(1-methyl-1H-tetrazol-5-yl)-4-(trifluoromethyl)benzamide, reference compound] | – | 80 | – | 50 | – | – | 80 | 30 | 0 | 60 | 60 | 40 | 40 | 10 | 0 | 30 | 60
